For orientation: inhibition means how much of the control response was suppressed. The term IC50 denotes the midpoint of a concentration-inhibition curve. As a reminder, the melting point is the temperature, or range, at which the solid turns liquid.

Consider six compounds from US8686048B2, “Immunomodulator and anti-inflammatory compounds” (Rhizen Pharmaceuticals SA, priority 2010, dated 2014).

In one data set the target is T1, h-DHODH (Homo sapiens, UniProt Q02127).
T1 construct: endogenous in cells; host or cells: U937 cells (membrane fraction, solubilised with 1% octyl glucoside)
In words: Dihydro-orotate dehydrogenase inhibition assay (U937 membrane preparations, DCIP reduction). The conditions noted are these: U937 membrane preparation. The format is biochemical. In short, it runs like this: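 Detergent (1% octyl glucoside) extract of U937 cell membranes; dihydro-orotate-driven DCIP reduction followed as absorbance change at 600 nm after 4 h at 37° C. IC50 derived from percent inhibition of […].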

The test system of another data set is IL-17. In words: Inhibition of IL-17 release from mouse splenocytes (PMA + ionomycin, ELISA). The format is cell-based, Balb/c mice. The conditions noted are these: Splenocyte, 3 h. In short, it runs like this: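 Balb/c splenocytes (1×10^6 cells/ml, RPMI) were pretreated with inhibitor for 15 min, then stimulated with 10 ng/ml PMA plus 1 μM ionomycin. Supernatant IL-17 was measured by ELISA after 3 h. IC50 was derived from percent inhibition relative to control.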

Another data set concerns IL-17 secreting cells. Put plainly: Determination of IL-17 producing cells by flow cytometry in PBMC. The format is cell-based. The conditions noted are these: human PBMC, Cytostim, 4 h, read-out: inhibition of IL17 (IL-17 secreting cells normalized to total CD4+ cells). How it is done: 3. Determination of IL-17 Producing Cells by Flow Cytometry:
PBMC isolated from human blood were stimulated and treated with desired concentrations of the test compounds prior to stimulation with Cytostim (Milteny Biotech, Germany). After 4 h, IL-17 secreting cells were stained using the IL-17 secretion assay kit as per the manufacturer's instruction and normalized to total CD4+ cells within the PBMC population. Data were analyzed using Graph pad prism.
On the technique in general: Flow cytometry measures light scatter and fluorescence of single cells or particles in a stream.

In a further data set the test system is PBMC. Put plainly: Inhibition of PHA induced PBMC proliferation (MTT). The format is cell-based. The conditions noted are these: Homo sapiens, 48 h. How it is done: a. Inhibition of PHA Induced PBMC Proliferation:
PBMC from freshly collected HWB was isolated by density gradient using Histopaque and seeded in a 96-well plate. Wells were incubated with desired concentrations of the inhibitor for 15 min. Proliferation was induced by the addition of 2 μM Phytohemagglutinin at 37° C. in an atmosphere containing […]. Viability was determined after 48 h using an 3-(4,5-Dimethylthiazol-2-yl)-2,5-diphenyltetrazolium bromide (MTT) assay. Data were analyzed using GraphPad Prism. percent inhibition and/or GI50 values for each compound were determined based on the percent inhibition due to the test compound compared to the control.

The subject of data set [1] is CD4+ cell. In words: Inhibition of PHA induced CD4+ cell proliferation in human whole blood. It is filed as cell-based. The conditions noted are these: 48 h, flow cytometry. The protocol:
c. Inhibition of PHA Induced CD4+ Cell Proliferation in Human Whole Blood:
HWB or were treated with desired concentration of inhibitor and induced with 5 μM PHA. % CD4+ cell viability was determined after 48 h by flow cytometry. Data were analyzed using GraphPad Prism. Percent inhibition and IC50 values for each compound were determined based on the percent inhibition due to the test compound compared to the control.

In data set [2] the test system is CD4+ cell. In words: Inhibition of PHA induced CD4+ cell proliferation in PBMC. The format is cell-based. The conditions noted are these: Homo sapiens, isolated PBMC, 48 h, flow cytometry. How it is done: d. Inhibition of PHA Induced CD4+ Cell Proliferation in PBMC:
Isolated PBMC were treated with desired concentration of inhibitor and induced with 5 μM PHA. % CD4+ cell viability was determined after 48 h by flow cytometry. Data were analyzed using GraphPad Prism. IC50 values for each compound were determined based on the percent inhibition due to the test compound compared to the control.

Data set [3] can be described thus: Single dose oral hepatotoxicity assay. The conditions noted are these: serum, 24 hr after 100 mg/kg po single dose, mice. It is filed as in vivo, BALB/cJ mice. How it is done:
5. Single Dose Oral Hepatotoxicity Assay:
BALB/cJ (n=4 or 5/sex) mice aged 8 to 10 weeks, with weights ranging from 18 to 25 g were used. They were housed under conditions of controlled temperature and humidity and a 12-h light/dark cycle. They were given continuous access to bottled spring water and fed a standard chow at ad libitum. The mice were allowed to acclimate for 1 week before use. On the day of experiment mice were fasted overnight for 12 h and administered with test item formulation (100 mg/kg·b·wt/po) or vehicle (10 ml/kg·b·wt/po) by oral route and food was given 4 hr after test item administration. After 24 hr post administration blood samples were collected from orbital sinus of all the animals and serum was separated to assess the hepatotoxicity. Biochemical evaluation of liver function was determined by measuring serum enzyme activities of alanine aminotransferase (ALT) and aspartate aminotransferase (AST) using commercially available kits from Sigma (St. Louis, Mo.).

Another data set deals with IL17. Put plainly: Inhibition of PHA induced cytokine (IL17) release in PBMC. The format is cell-based. The conditions noted are these: Homo sapiens, 48 h, ELISA. How it is done: b. Inhibition of PHA Induced Cytokine (IL17) Release:
PBMC from freshly collected HWB were isolated by density gradient using Histopaque and seeded in a 96-well plate. Wells were incubated with desired concentrations of the inhibitor for 15 min. Proliferation was induced by the addition of 2 μM Phytohemagglutinin at 37° C. in an atmosphere containing […]. Supernatant was collected after 48 h for estimation of cytokines by ELISA. Data were analyzed using GraphPad Prism. Percent inhibition and IC50 values for each compound were determined based on the percent inhibition due to the test compound compared to the control.
For orientation: In an ELISA, binding on a coated surface is turned into a signal by an enzyme label.

The conditions of data set [4]: patients; cited from earlier work.
Another data set concerns HIV. The conditions noted are these: at a concentration that can be obtained with conventional dosing; cited from earlier work.

T1 sequence (Q02127 whole entry): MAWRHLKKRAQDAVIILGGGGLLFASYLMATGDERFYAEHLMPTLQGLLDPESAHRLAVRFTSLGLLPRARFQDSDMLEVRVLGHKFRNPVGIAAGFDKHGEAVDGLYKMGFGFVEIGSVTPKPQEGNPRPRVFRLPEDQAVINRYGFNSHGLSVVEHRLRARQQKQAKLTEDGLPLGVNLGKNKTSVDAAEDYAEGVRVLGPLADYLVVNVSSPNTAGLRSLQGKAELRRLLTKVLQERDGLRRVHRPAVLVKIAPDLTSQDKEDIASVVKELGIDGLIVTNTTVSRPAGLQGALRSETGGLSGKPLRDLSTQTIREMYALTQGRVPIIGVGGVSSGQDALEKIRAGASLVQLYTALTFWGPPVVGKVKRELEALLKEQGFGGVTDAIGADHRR

As for `CCCCOc1cccc(-c2cc(F)c(NC(=O)c3ccccc3C(=O)O)c(Cl)c2)c1` [Example 29, 2-(3′-butoxy-3-chloro-5-fluorobiphenyl-4-ylcarbamoyl)benzoic acid], the melting point lay within 128 to 130 °C. At h-DHODH, this compound came in with an inhibition at 1 µM of 94% and an IC50 of 7.93 nM. Further, in the data set on IL-17, the inhibition at 10 µM was 46.1% and the IC50 came to 18800 nM. Moreover, the inhibition at 1 µM in the data set with IL-17 secreting cells worked out at 43.6%. For the same compound, the inhibition at 10 µM in the data set on PBMC is more than 70%. In the data set with CD4+ cell [1], this compound yielded an inhibition at 1 µM of more than 65%. Further, in the data set with CD4+ cell [2], the inhibition at 1 µM was more than 90%. In data set [3], this compound displayed an ALT of 67.9 U/L and an AST of 114.4 U/L.
As to `CCOc1cccc(-c2cc(F)c(NC(=O)c3ccccc3C(=O)O)c(F)c2)c1` [Example 5, 2-(3′-Ethoxy-3,5-difluorobiphenyl-4-ylcarbamoyl)benzoic acid], the melting point lay within 136 to 141 °C. At h-DHODH, this compound showed an inhibition at 1 µM of 85.7% and an IC50 of 49.8 nM. Moreover, the inhibition at 10 µM in the data set on IL-17 stood at 30.8%. Moreover, in the data set with IL17, the inhibition at 10 µM was more than 50%. In [3], this compound showed an ALT of 113.6 U/L and an AST of 137.8 U/L.
`CCc1c[nH]c2ccc(-c3cc(F)c(NC(=O)c4ccccc4C(=O)O)c(F)c3)cc12` [Example 75, 2-[4-(3-ethyl-1H-indol-5-yl)-2,6-difluorophenylcarbamoyl]benzoic acid] came in with a melting point of 157.9 to 160.9 °C. For the same compound, the IC50 at h-DHODH stood at 1.52 nM. On h-DHODH (compound tested at 0.3 uM (footnote *)), this compound displayed an inhibition at 0.3 µM of 100%. Besides, in the data set on IL-17, the inhibition at 10 µM was determined as 29.4% and the IC50 was 32900 nM. The compound further had an inhibition at 10 µM in the data set on PBMC of more than 70%. The inhibition at 1 µM in the data set with CD4+ cell [1] was more than 65%. The same compound yielded an inhibition at 1 µM with CD4+ cell [2] of more than 90%. For the same compound, in data set [3], the ALT was found to be 93.9 U/L and the AST is given as 210.8 U/L.
Turning to `Cc1oncc1C(=O)Nc1ccc(C(F)(F)F)cc1` [leflunomide, Leflunomide], the half-life time entry in [4] is given as “approximately 2 weeks”. In addition, the “reduction of HIV replication” value in the data set with HIV is recorded as “about 75%”.
For the compound `O=C(O)c1ccccc1C(=O)Nc1c(F)cc(-c2cccc(OC3CCCC3)c2)cc1Cl` [Example 42, 2-(3-Chloro-3′-(cyclopentyloxy)-5-fluorobiphenyl-4-ylcarbamoyl)benzoic acid], the melting point was 122 to 126 °C. Besides, on h-DHODH, the inhibition at 1 µM turned out to be 76.9% and 24 nM corresponded to half-maximal inhibition (IC50). Moreover, in the data set with IL-17, the inhibition at 10 µM was determined as 22.3%. In the data set on PBMC, this compound came in with an inhibition at 10 µM of more than 70%. In data set [3], this compound registered an ALT of 113 U/L and an AST of 189.6 U/L.
`CC(C)COc1cccc(-c2cc(F)c(NC(=O)c3ccccc3C(=O)O)c(Cl)c2)c1` [Example 31, 2-(3-Chloro-5-fluoro-3′-isobutoxybiphenyl-4-ylcarbamoyl)benzoic acid] displayed a melting point of 202 to 205.5 °C. In addition, on h-DHODH, at 1 µM the inhibition was 73.5% and 44.6 nM corresponded to half-maximal inhibition (IC50). In addition, in the data set with IL-17, the inhibition at 10 µM stood at 21.1%. Also, in [3], the ALT was 65.1 U/L and the AST amounted to 161.4 U/L.
